Where two headings read alike, the source gives them in different places.
What was measured:
[1] = system: cancer cells; assay: MTS cell growth inhibition assay (72 hours); type: cell-based
Outline: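 Growth inhibition read as formazan absorbance at 492 nm after 4 h MTS/PMS, following 72 h compound exposure at 37 °C in 1% FBS DMEM (cells pre-seeded 18 h). IC50 = 50% absorbance reduction; inhibition graded in bands.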

[2] = molecular target: T1, FGFR2 (N549H) (Homo sapiens, UniProt P21802, N549H); assay: fluorescent ELISA assay for inhibitors of FGFR2 kinase; type: biochemical; details: Pyk2 peptide substrate, 60 minutes
T1 construct: purchased Millipore 14-742
T1 sequence (P21802 22-821 N549H): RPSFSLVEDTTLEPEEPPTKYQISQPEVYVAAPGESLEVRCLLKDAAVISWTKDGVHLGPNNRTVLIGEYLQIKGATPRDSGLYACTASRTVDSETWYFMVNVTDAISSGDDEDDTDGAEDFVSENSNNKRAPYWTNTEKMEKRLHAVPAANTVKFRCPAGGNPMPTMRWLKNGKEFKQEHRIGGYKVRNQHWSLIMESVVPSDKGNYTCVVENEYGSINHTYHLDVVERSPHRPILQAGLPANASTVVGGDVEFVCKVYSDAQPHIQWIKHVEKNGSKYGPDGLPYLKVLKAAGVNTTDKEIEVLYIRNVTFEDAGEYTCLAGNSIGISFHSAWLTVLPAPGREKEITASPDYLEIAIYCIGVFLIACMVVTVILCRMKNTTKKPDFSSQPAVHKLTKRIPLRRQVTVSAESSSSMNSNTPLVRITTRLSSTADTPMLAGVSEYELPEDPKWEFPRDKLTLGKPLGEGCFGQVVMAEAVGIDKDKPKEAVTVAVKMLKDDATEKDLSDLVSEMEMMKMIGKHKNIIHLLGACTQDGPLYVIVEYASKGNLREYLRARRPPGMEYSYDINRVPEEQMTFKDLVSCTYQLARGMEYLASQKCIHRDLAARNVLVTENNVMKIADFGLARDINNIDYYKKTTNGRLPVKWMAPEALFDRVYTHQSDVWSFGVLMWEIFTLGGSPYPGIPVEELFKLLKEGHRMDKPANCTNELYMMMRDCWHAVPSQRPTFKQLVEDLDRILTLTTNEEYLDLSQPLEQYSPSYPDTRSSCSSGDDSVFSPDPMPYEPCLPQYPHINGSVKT
Method: The enzymatic assays described herein are conducted according to the following procedures from commercially available reagents. In one non-limiting example, a fluorescent ELISA assay is used to identify and characterize inhibitors of FGFR2 kinase as described herein. This heterogeneous assay utilizes a biotinylated peptide with a tyrosine motif as a substrate and an anti-phospho-tyrosine antibody to measure phosphorylation of the substrate. The reaction is initiated by adding the test compound, 37 μM Pyk2 substrate (Midwest Biotech, Cat. #MBT2383), 12.5 μM ATP (Roche, Cat. #11 140 965 001) and 0.5 μM FGFR2 enzyme (Millipore, Cat. #14-742) sequentially to a non-binding polypropylene V-well plate. All reagents are in an assay buffer consisting of: 50 mM Tris-HCL, 0.02 mg/ml BSA, 10 mM MgCl2, 0.1 mM Na3VO4, 1 mM EGTA, 75 μM ATP, 0.01% NP-40, 2 mM DTT and 10% glycerol. The reaction is incubated for 60 minutes. As the reaction proceeds, FGFR2 phosphorylates tyrosines in the peptide. The reaction mixture is then moved to a blocked streptavidin-coated Nunc Maxisorb plate (coated with 100 ng streptavidin from Pierce (Cat. #15-124) per well), allowing for the capture of the biotinylated peptide. Peptides are captured for 30 minutes at room temperature, the phosphorylation of peptides continues during this phase. The reaction is stopped by washing the streptavidin-coated plate 6 times with TBST. Phosphorylated peptide is detected by adding anti-phospho-tyrosine antibody (Cell Signaling, Cat. #9411, diluted 1:3000) to the streptavidin-coated plate. Unbound anti-phospho-tyrosine antibody is removed by washing the streptavidin-coated plate 6 times with TBST. Secondary detection is performed using alkaline phosphatase tagged goat anti-mouse antibody (Pierce, Cat. #31320, diluted 1:4000) for one hour. Unbound secondary antibody is removed by washing the streptavidin-coated plate 6 times with TBST. The fluorescent readout is initiated by adding to the streptavidin-coated plate Promega Attophos substrate (Promega, Cat. #S1000, dilution=6 mg/10 ml), which, when dephosphorylated by alkaline phosphatase, emits a fluorescent signal of 595 nm in wavelength when excited by a signal of 400 nm in wavelength. The reading of the 595 nm signal is done on the Perkin Elmer Envision system. Compounds which prevent FGFR2 from phosphorylating the peptide result in a lower fluorescent signal. The 595 nm fluorescent signal is directly proportional to the activity of FGFR2. Thus, the inhibition of FGFR2 by compounds is monitored by the decrease in the 595 nm fluorescent signal.

[3] = Homo sapiens, DLD-1, 72 h, DLD-1 cells, read-out: DLD-1 MTS 72 hr at 10 μM
[4] = Homo sapiens, KATO III, 72 h, KATO III cells, read-out: KATO III MTS 72 hr at 10 μM
[5] = Homo sapiens, MDA-MB-231, 72 h, MDA-MB-231 cells, read-out: MDA-MB-231 MTS 72 hr at 10 μM
[6] = Homo sapiens, NCI-H1299, 72 h, NCI-H1299 cells, read-out: NCI-H1299 MTS 72 hr at 10 μM
[7] = PaCa-2, 72 h, PACA-2 cells, read-out: PACA-2 MTS 72 hr at 10 μM

IC50 [2] [µM] | SMILES | inhibition at 10 µM [1, 3] [%] | inhibition at 10 µM [1, 4] [%] | inhibition at 10 µM [1, 5] [%] | inhibition at 10 µM [1, 6] [%] | inhibition at 10 µM [1, 7] [%]
0.27 | Nc1nc(NC2Cc3ccccc3N(S(=O)(=O)c3ccc(F)c(Cl)c3)C2)c2cn[nH]c2n1 (stereo not drawn) [Compound 43, N4-(1-(3-chloro-4-fluorophenylsulfonyl)-1,2,3,4-tetrahydroquinolin-3-yl)-1H-pyrazolo[3,4-d]pyrimidine-4,6-diamine] | > 79 | > 79 | > 79 | > 79 | > 79
3.6 | Nc1nc(NC2Cc3ccccc3N(S(=O)(=O)c3ccc(Br)cc3)C2)c2cn[nH]c2n1 (stereo not drawn) [Compound 37, N4-(1-(4-bromophenylsulfonyl)-1,2,3,4-tetrahydroquinolin-3-yl)-1H-pyrazolo[3,4-d]pyrimidine-4,6-diamine] | < 50 | < 50 | < 50 | < 50 | < 50
0.41 | Nc1nc(NC2Cc3ccccc3N(S(=O)(=O)c3ccc(F)cc3Cl)C2)c2cn[nH]c2n1 (stereo not drawn) [Compound 53, N4-(1-(2-chloro-4-fluorophenylsulfonyl)-1,2,3,4-tetrahydroquinolin-3-yl)-1H-pyrazolo[3,4-d]pyrimidine-4,6-diamine] | < 50 | < 50 | < 50 | < 50 | < 50
3.35 | Nc1nc(NC2Cc3ccccc3N(S(=O)(=O)c3cccc4ccccc34)C2)c2cn[nH]c2n1 (stereo not drawn) [Compound 31, N4-(1-(naphthalen-1-ylsulfonyl)-1,2,3,4-tetrahydroquinolin-3-yl)-1H-pyrazolo[3,4-d]pyrimidine-4,6-diamine] | < 50 | > 79 | < 50 | < 50 | < 50
0.88 | Nc1nc(NC2Cc3ccccc3N(S(=O)(=O)c3ccc(Cl)c(Cl)c3)C2)c2cn[nH]c2n1 (stereo not drawn) [Compound 39, N4-(1-(3,4-dichlorophenylsulfonyl)-1,2,3,4-tetrahydroquinolin-3-yl)-1H-pyrazolo[3,4-d]pyrimidine-4,6-diamine] | < 50 | 50 to 79 | < 50 | < 50 | < 50
0.19 | Nc1nc(NC2Cc3ccccc3N(S(=O)(=O)c3cc(F)ccc3F)C2)c2cn[nH]c2n1 (stereo not drawn) [Compound 55, N4-(1-(2,5-difluorophenylsulfonyl)-1,2,3,4-tetrahydroquinolin-3-yl)-1H-pyrazolo[3,4-d]pyrimidine-4,6-diamine] | > 79 | 50 to 79 | 50 to 79 | < 50 | > 79
3.97 | Nc1nc(NC2Cc3ccccc3N(Cc3ccc(Cl)c(Cl)c3)C2)c2cn[nH]c2n1 (stereo not drawn) [Compound 7, N^4-(1-(3,4-dichlorobenzyl)-1,2,3,4-tetrahydroquinolin-3-yl)-1H-pyrazolo[3,4-d]pyrimidine-4,6-diamine] | > 79 | > 79 | > 79 | > 79 | > 79
17.2 | Nc1nc(NC2Cc3ccccc3N(Cc3ccccc3)C2)c2cn[nH]c2n1 (stereo not drawn) [Compound 125, N4-(1-benzyl-1,2,3,4-tetrahydroquinolin-3-yl)-1H-pyrazolo[3,4-d]pyrimidine-4,6-diamine] | < 50 | < 50 | < 50 | < 50 | < 50
> 30 | CC(C)c1ccc(S(=O)(=O)N2CC(Nc3nc(N)nc4[nH]ncc34)Cc3ccccc32)cc1 (stereo not drawn) [Compound 56, N4-(1-(4-isopropylphenylsulfonyl)-1,2,3,4-tetrahydroquinolin-3-yl)-1H-pyrazolo[3,4-d]pyrimidine-4,6-diamine] | < 50 | < 50 | < 50 | < 50 | < 50

Reference: patent US8273754B2, “Substituted 1H-pyrazolo[3,4-D]pyrimidine-6-amine compounds” (ArQule, Inc., priority 2008, dated 2012)
